Experimental data: US20250281449A1, “NITROGEN-CONTAINING ANALOGS OF SALINOMYCIN FOR USE IN MULTIPLE MYELOMA (MM)” (Centre National de la Recherche Scientifique, priority 2021, published 2025)

Key:
non-MM cells = assay: Assay on primary samples of patients, non-MM cells (flow cytometry); format: cell-based, human; details: primary samples of patients, n=5
Method: (§1) Primary MM cells were treated with Ironomycin (A) or AM-23 (B) and incubated during 96H with IL-6. The toxicity on MM cells and non-MM cells was analyzed by flow cytometry and expressed in % of control.
(§2) Bone marrow samples were collected after patients' written informed consent in accordance with the Declaration of Helsinki and institutional research board approval from Montpellier University hospital. Cells are obtained from […] of 5 patients with MM. Cells are obtained by density gradient separation and qualified by Flow cytometry.
(§3) Cells are cultured in Gibco® RPMI-1640 (Glutamax) medium (#6187-010) with 10% FBS at a density of 0.5×10^6 Cell/mL with 2 ng/mL of interleukin-6. Cells are seeded 24H after thawing and treated with various compounds during 72H.
(§4) Total cells were counted with trypan blue and stained with the panel CD38-APC, CD138-PE (Beckman coulter) and analyzed by flow cytometry (Fortessa cytometer, BD Pharmigen). Tumorous MM cells were gated on CD38+ and CD138+.

XG21 = assay: Cell viability assay (Cell Titer-Glo), HMCL; format: cell-based; details: Homo sapiens, 96 h
Method: (§5) The panel of 17 HMCL cell lines were incubated with increasing concentrations of Ironomycin (A), AM23 (B) or vehicle for 96H.
(§6) HMCL cell lines were cultured for 4 days in 96-well flat-bottom microtiter plates in RPMI 1640 medium or DMEM medium, 10% or 20% FCS (control medium) in the presence of various compounds. The number of viable cells in culture was determined using the Cell Titer-Glo Luminescent Cell Viability Assay from Promega, Madison, WI, USA using a Centro LB 960 luminometer (Berthold Technologies, Bad Wildbad, Germany).
(§7) This test is based on quantitation of the intracellular ATP present, which signals the presence of metabolically active cells. Data are expressed as the mean percentage of six replicates, normalized to the untreated control.

XG20 = assay: Cell viability assay (Cell Titer-Glo), HMCL; format: cell-based; details: Homo sapiens, 96 h
Method: as §5, §6, §7

XG12 = assay: Cell viability assay (Cell Titer-Glo), HMCL; format: cell-based; details: Homo sapiens, 96 h
Method: as §5, §6, §7

XG-1 = assay: Cell viability assay (Cell Titer-Glo), HMCL; format: cell-based; details: Homo sapiens, 96 h
Method: as §5, §6, §7

MOLP-8 = assay: Cell viability assay (Cell Titer-Glo), HMCL; format: cell-based; details: Homo sapiens, MOLP-8, 96 h
Method: as §5, §6, §7

XG28 = assay: Cell viability assay (Cell Titer-Glo), HMCL; format: cell-based; details: Homo sapiens, 96 h
Method: as §5, §6, §7

OPM-2 = assay: Cell viability assay (Cell Titer-Glo), HMCL; format: cell-based; details: Homo sapiens, OPM-2, 96 h
Method: as §5, §6, §7

XG6 = assay: Cell viability assay (Cell Titer-Glo), HMCL; format: cell-based; details: Homo sapiens, XG6, 96 h
Method: as §5, §6, §7

XG24 = assay: Cell viability assay (Cell Titer-Glo), HMCL; format: cell-based; details: Homo sapiens, 96 h
Method: as §5, §6, §7

XG-7 = assay: Cell viability assay (Cell Titer-Glo), HMCL; format: cell-based; details: Homo sapiens, 96 h
Method: as §5, §6, §7

MM cell lines = assay: Cell growth inhibition in panel of MM cell lines; format: cell-based, human; details: 96H
Method: as §5, §6, §7
The therapeutic interest of iron metabolism inhibitors AM5 (Ironomycin) and AM23 was further investigated using large collection of 18 MM cell lines (Moreaux J et al. Haematologica 2011; Vikova V et al. Theranostics 2019). The IC50 of Ironomycin and AM23 respectively are illustrated in the Table 5 hereunder: […]

primary MM cells = assay: Assay on primary MM cells of patients (flow cytometry); format: cell-based, human; details: n=5, with IL-6
Method: as §1, §2, §3, §4

## CC[C@@H](C(=O)[C@@H](C)[C@@H](O)[C@H](C)[C@@H]1O[C@@H]([C@@H](CC)C(=O)O)CC[C@@H]1C)[C@H]1O[C@]2(C=C[C@@H](NC3CC3)[C@]3(CC[C@@](C)([C@H]4CC[C@](O)(CC)[C@H](C)O4)O3)O2)[C@H](C)C[C@@H]1C [AM23]
non-MM cells
  toxicity for non-tumoral cells: without significant toxicity
XG21
  IC50: 0.0343 µM
XG20
  IC50: 0.154 µM
XG12
  IC50: 0.0008 µM
XG-1
  IC50: 0.0211 µM
MOLP-8
  IC50: 0.013 µM
XG28
  IC50: 0.013 µM
OPM-2
  IC50: 0.0014 µM
XG6
  IC50: 0.0038 µM
XG24
  IC50: 0.0088 µM
XG-7
  IC50: 0.0118 µM
MM cell lines
  cell growth inhibition / toxicity on MM cell lines: validated the toxicity
MM cell lines; listed as AM-23
  cell growth inhibition / toxicity on MM cell lines: kill MM cells with nanomolar concentration
Primary MM cells
  toxicity on primary MM cells of patients: validated the therapeutic interest
